Measurements from the supplement of paper PMC10307832.

Tests used:
Assay in all cases: relative viability (nuclei count vs DMSO), 5 days (fraction); higher = more cells survive
[1] = compound: CC1=NC=CC(=C1)C2=CC=C(C=C2)CC(=O)NC3=CC=C(C=C3)C4=CN=CC=C4 [Wnt-C59] + CS(=O)(=O)N1CCN(Cc2cc3nc(-c4cccc5[nH]ncc45)nc(N4CCOCC4)c3s2)CC1 [Pictilisib] (partner 1 µM)
Summary of the method: (§1)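 Lung cancer cell lines in 1536-well plates got either a single drug or a fixed anchor-drug dose together with five library-drug doses (not always all listed) in √10 steps, by pin tool, on the day after seeding. Nuclei were counted after 5 days, and relative viability is the treated-to-vehicle ratio of nuclei counts. Values are medians of duplicate plates.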

[2] = compound: CS(=O)(=O)CCNCc1ccc(-c2ccc3ncnc(Nc4ccc(OCc5cccc(F)c5)c(Cl)c4)c3c2)o1 [Lapatinib] + Nc1nc2[nH]cc(CCc3ccc(C(=O)N[C@@H](CCC(=O)O)C(=O)O)cc3)c2c(=O)[nH]1 [Pemetrexed] (partner 0.2 µM)
Summary of the method: as §1

[3] = compound: CS(=O)(=O)CCNCc1ccc(-c2ccc3ncnc(Nc4ccc(OCc5cccc(F)c5)c(Cl)c4)c3c2)o1 [Lapatinib] + NC(=O)Nc1cc(-c2cccc(F)c2)sc1C(=O)N[C@H]1CCCNC1 [AZD7762] (partner 0.2 µM)
Summary of the method: as §1

[4] = compound: CS(=O)(=O)CCNCc1ccc(-c2ccc3ncnc(Nc4ccc(OCc5cccc(F)c5)c(Cl)c4)c3c2)o1 [Lapatinib] + CC(C)C[C@H](NC(=O)[C@H](Cc1ccccc1)NC(=O)c1cnccn1)B(O)O [Bortezomib] (partner 0.002 µM)
Summary of the method: as §1

Row | Cell Line | relative viability ([1]; first compound 0.001 µM) | relative viability ([1]; first compound 0.01 µM) | relative viability ([1]; first compound 0.03162 µM) | relative viability ([1]; first compound 0.1 µM) | relative viability ([2]; first compound 0.02 µM) | relative viability ([2]; first compound 0.06325 µM) | relative viability ([2]; first compound 0.2 µM) | relative viability ([2]; first compound 0.6325 µM) | relative viability ([2]; first compound 2 µM) | relative viability ([3]; first compound 0.02 µM) | relative viability ([3]; first compound 0.06325 µM) | relative viability ([3]; first compound 0.2 µM) | relative viability ([3]; first compound 0.6325 µM) | relative viability ([3]; first compound 2 µM) | relative viability ([4]; first compound 0.02 µM) | relative viability ([4]; first compound 0.06325 µM) | relative viability ([4]; first compound 0.2 µM) | relative viability ([4]; first compound 0.6325 µM) | relative viability ([4]; first compound 2 µM)
1 | HCC-827 | 0.83 | 1.07 | 1.15 | 0.971 | 0.26 | 0.263 | 0.285 | 0.239 | 0.202 | 0.172 | 0.299 | 0.129 | 0.19 | 0.103 | 0.982 | 1.04 | 1.1 | 0.94 | 1.07
2 | HOP-62 | 0.63 | 0.76 | 0.855 | 0.693 |  | 0.318 | 0.299 | 0.365 | 0.389 |  | 0.526 | 0.669 | 0.501 | 0.568 |  | 0.857 | 0.577 | 0.99 | 0.761
3 | IA-LM | 0.271 | 0.251 | 0.337 | 0.375 |  |  |  |  |  |  |  |  |  |  | 0.787 | 0.788 | 0.893 | 0.88 | 0.839
4 | LK-2 | 0.667 | 0.653 | 0.557 | 0.573 | 0.137 |  | 0.261 |  | 0.264 | 0.393 |  | 0.379 |  | 0.636 |  |  |  |  | 
5 | NCI-H358 | 0.311 | 0.345 | 0.314 | 0.354 | 0.173 | 0.157 | 0.16 | 0.167 | 0.189 | 0.459 | 0.364 | 0.379 | 0.388 | 0.282 |  |  |  |  | 
6 | NCI-H520 | 0.247 | 0.293 | 0.329 | 0.291 | 0.741 | 0.636 | 0.604 | 0.712 | 0.489 |  |  |  |  |  | 0.699 | 0.388 | 0.59 | 0.54 | 0.416
7 | NCI-H522 |  |  |  |  |  | 0.794 | 0.875 | 0.994 | 0.781 |  | 0.731 | 0.845 | 1.07 | 0.612 |  |  |  |  | 
8 | NCI-H661 | 0.414 | 0.441 | 0.391 | 0.442 | 0.872 | 0.773 | 0.834 | 0.736 | 0.756 |  |  |  |  |  | 0.703 | 0.756 | 0.674 | 0.618 | 0.482
9 | NCI-H727 | 0.381 | 0.342 | 0.43 | 0.309 |  |  |  |  |  | 0.634 |  | 0.443 | 0.551 | 0.395 | 0.758 | 0.78 | 1.04 | 1.09 | 0.801
10 | NCI-H1299 | 0.739 | 0.476 | 0.756 | 0.793 |  |  |  |  |  |  |  |  |  |  | 1.05 | 1.04 | 1.02 | 1.01 | 0.996
11 | NCI-H1395 | 0.656 | 0.608 | 0.655 | 0.664 |  | 0.938 | 0.87 | 0.887 | 0.793 |  | 0.364 | 0.428 | 0.383 | 0.414 |  |  |  |  | 
12 | NCI-H1563 | 0.604 | 0.665 | 0.721 | 0.646 | 0.651 | 0.862 | 0.652 | 0.843 | 0.666 |  |  |  |  |  | 0.952 | 0.741 | 0.826 | 0.902 | 0.834
13 | NCI-H1648 |  |  |  |  |  | 0.62 | 0.789 | 0.636 | 0.64 |  | 0.921 | 0.612 | 0.643 | 0.658 |  |  |  |  | 
14 | NCI-H1650 | 0.549 | 0.53 | 0.645 | 0.532 | 0.364 | 0.377 | 0.395 | 0.337 | 0.345 |  |  |  |  |  | 0.203 | 0.206 | 0.223 | 0.192 | 0.243
15 | NCI-H1703 | 0.22 | 0.218 | 0.324 | 0.273 |  |  |  |  |  |  | 0.119 |  | 0.121 | 0.113 | 0.316 | 0.313 | 0.317 | 0.24 | 0.32
16 | NCI-H1793 | 0.215 | 0.22 | 0.3 | 0.444 |  | 0.602 | 0.889 | 0.658 | 0.535 |  | 0.355 | 0.304 | 0.437 | 0.186 |  |  |  |  | 
17 | NCI-H1944 | 0.372 | 0.312 | 0.322 | 0.336 | 0.619 | 0.493 | 0.551 | 0.523 | 0.41 | 0.504 | 0.453 | 0.51 | 0.47 | 0.379 |  |  |  |  | 
18 | NCI-H2009 | 0.744 | 0.825 | 0.841 | 0.784 | 0.972 | 1.02 | 1.05 | 0.98 | 0.998 |  |  |  |  |  | 0.754 | 0.968 | 1.06 | 1.04 | 1.08
19 | NCI-H2023 | 0.27 | 0.244 | 0.238 | 0.235 |  | 0.182 | 0.233 | 0.193 | 0.186 |  |  |  |  |  | 0.135 | 0.712 | 0.969 | 1.1 | 0.913
20 | NCI-H2170 | 0.3 | 0.279 | 0.309 | 0.383 | 0.272 | 0.249 | 0.271 | 0.274 | 0.198 | 0.824 | 0.574 | 0.485 | 0.252 | 0.14 |  |  |  |  | 
21 | NCI-H2228 | 0.479 | 0.505 | 0.573 | 0.252 | 0.338 | 0.34 | 0.312 | 0.272 | 0.331 |  |  |  |  |  | 0.841 | 1 | 1.09 | 1.01 | 0.801
22 | NCI-H2342 |  |  |  |  | 0.576 | 0.712 | 0.723 | 0.776 | 0.714 | 0.421 | 0.408 | 0.381 | 0.447 | 0.394 |  |  |  |  | 
23 | SK-LU-1 | 0.476 | 0.558 | 0.638 | 0.559 | 0.961 | 0.9 | 1.02 | 0.98 | 0.886 |  |  |  |  |  |  | 1.04 | 1.05 | 1.2 | 1.2
24 | SK-MES-1 | 0.392 | 0.368 | 0.305 | 0.322 | 0.824 | 0.93 | 0.943 | 0.997 | 0.405 |  |  |  |  |  |  |  |  |  | 
25 | SW 900 |  |  |  |  |  | 0.432 | 0.494 | 0.471 | 0.45 |  | 0.549 | 0.549 | 0.591 | 0.466 |  |  |  |  | 
26 | SW 1573 | 0.452 | 0.544 | 0.563 | 0.404 |  | 0.716 | 0.883 | 0.882 | 0.759 |  |  |  |  |  | 1.01 | 0.892 | 0.953 | 1.18 | 1.01
